Test results published in patent publication US10520493B2, “Method for assessment of neural function by establishing analysis module” (NATIONAL CHENG KUNG UNIVERSITY, priority 2015, dated 2019).

Tested on: primarily cultured cortical neurons
Experiment: High-content image analysis of the effect of chemotherapy drugs on primarily cultured neurons (neuron number, synaptic puncta number, neurite length)
Conditions: cells cultured for 10 days, drug added for 24 hours, FIG. 7-9; for neurotoxicity (effect on the neuron number, the synaptic puncta number and the neurite length): MAP2/synaptophysin/Hoechst staining
Experimental: To analyze neural function accurately, MetaXpress 3.1 software (“MetaXpress® Image Acquisition and Analysis Software (Analysis Guide)” was used on the website ftp://ftp.meta.moleculardevices.com/pub/uic/software/MX31R13/HelpDocs/MetaXpress/MetaXpress_3_1_Analysis_Guide.pdf) to design an analysis module. An automatic analysis was performed according to the following optimal indicators (a)˜(c) for image analysis with 32 steps.
The cultured cells including neurons and glial cells were firstly separated according to the area and the fluorescence intensity of the nucleus stained by Hoechst dye together with MAP2 antibody.
After neurons stained with MAP2 were selected, the area of neuronal cell body, the length and the number of processes and branches of the neurites were calculated to verify outgrowth of the neurites.
Numbers of synaptic puncta of the neurons were calculated according to the area of the neurites labeled with fluorescence mentioned above to verify formation of the synaptic puncta of the neurons.
Cerebral cortex was obtained from 0˜1 day old B6 mice pup and meninges were removed. DMEM/F12 medium without serum was used to triturate the cortex tissue. Then, the DMEM/F12 medium without serum was refilled to 5 mL, mixed evenly with 0.5 mL trypsin, and placed at 37° C. for 5 minutes. Then the mixture with 1 mL FBS was filtered through a cell strainer. After a centrifugation at 3,000 rpm for 10 min, the supernatant was removed and precipitated cells were added to a medium required for nerve cell culture. The medium was prepared by adding B-27® Supplement, 0.5 mM L-glutamine, and 0.5% penicillin streptomycin to Neurobasal® A medium.
(2) Black multi-well microplates with clear bottom were used for nerve cell culture. Each well was coated with 70 μL poly-D-lysine or poly-L-lysine. Cells were seeded in a density of 2.8×10^4/well. After cells were cultured for 10 days, chemotherapy drugs listed in the table 1 was respectively added to react with cells for 24 hours. Then cells were fixed with 4% polyformaldehyde for 10 min and washed with PBS twice for 5 min each. Then, each well was added with 1 M glycine reacting for 10 min and wash with PBS twice for 5 min each. After cells were added with 0.05% Triton X-100 reacting for 20 min and washed with PBS twice for 5 min each, cell were blocked with 4% BSA for 1 hour and then stained with primary antibodies including anti-MAP2 antibody (MyBioSource; MBS502140) and anti-synaptophysin antibody (Abcam; ab32127) for 12-16 hours. Next, cells were washed twice with PBST (10 min each) and incubated with fluorescence-conjugated secondary antibodies including Alexa Fluor 488 (Jackson ImmunoResearch; 703-546-155) and Alexa Fluor 647 (molecular probes; A31573) and Hoechst 33258 for 1 hour. At last, cells were washed twice with PBST (10 min each) and added with PBS for further image acquisition and analysis.
(3) Fluorescence microscopy system and method mentioned in the above embodiment were used to capture images at the wavelength of DAPI, FITC, and Cy5 for image analysis of the cultured cells. The images were enlarged 200 times (200×) and saved automatically after the shooting for analysis.

## Nc1ccn([C@@H]2O[C@H](CO)[C@@H](O)C2(F)F)c(=O)n1 [Gemcitabine]
  neurotoxicity (effect on the neuron number, the synaptic puncta number and the neurite length): less neurotoxicity

## N.N.O=C([O-])C1(C(=O)[O-])CCC1.[Pt+2] [carboplatin, Carboplatin]
Compared with cisplatin
  neurotoxicity compared with cisplatin: less neurotoxicity

## COc1cccc2c1C(=O)c1c(O)c3c(c(O)c1C2=O)C[C@@](O)(C(=O)CO)C[C@@H]3O[C@H]1C[C@H](N)[C@H](O)[C@H](C)O1 [doxorubicin, Doxorubicin]
  neurotoxicity (effect on the neuron number, the synaptic puncta number and the neurite length): less neurotoxicity

## CC(=O)O[C@H]1C(=O)[C@@]2(C)[C@H]([C@H](OC(=O)c3ccccc3)[C@]3(O)C[C@H](OC(=O)[C@H](O)[C@@H](NC(=O)c4ccccc4)c4ccccc4)C(C)=C1C3(C)C)[C@]1(OC(C)=O)CO[C@@H]1C[C@@H]2O [paclitaxel, Paclitaxel]
  neurotoxicity (effect on the neuron number, the synaptic puncta number and the neurite length): severe neurotoxicity

## CC[C@]1(O)C[C@H]2CN(CCc3c([nH]c4ccccc34)[C@@](C(=O)OC)(c3cc4c(cc3OC)N(C=O)[C@H]3[C@@](O)(C(=O)OC)[C@H](OC(C)=O)[C@]5(CC)C=CCN6CC[C@]43[C@@H]65)C2)C1 [vincristine, Vincristine]
  neurotoxicity (effect on the neuron number, the synaptic puncta number and the neurite length): severe neurotoxicity
